Measurements reported in publication PMC11984392, “EphA2-targeted alpha-particle theranostics for enhancing PDAC treatment” (Theranostics, 2025).
Like-named read-outs stand apart in the source and are kept apart here. *1 amine or outer side, *2 acyl side, *3 side chain or, on linkers, in order; H or OH if unused. Where a SMILES comes first, the peptide text is derived from it. Bridges are numbered along the chain shown (N, C = ends). [ ]: non-standard residue; d: D form. The star is where a group is joined. TATA = O=C(CC[*:1])N1CN(C(=O)CC[*:2])CN(C(=O)CC[*:3])C1; NOTA = O=C(O)CN1CCN(CC(=O)O)CCN(CC(=O)*)CC1; Hyp = O=C(O)[C@@H]1C[C@@H](O)CN1; hArg = N=C(N)NCCCC[C@H](N)C(=O)O; PEG2 = NCCOCCOCCC(=O)O; Sar = CNCC(=O)O

What was measured:
[1] = tested on: Panc1 tumor xenografts; assay: Whole-body dynamic PET pharmacokinetics; format: in vivo, NSG mice; settings: ~250 µCi i.v., remaining constant until 90 min
Procedure: Dynamic PET images were acquired on a Simultaneous 7T Bruker PET-MR scanner to evaluate the pharmacokinetics of [^68Ga]AJ201. Mice bearing Panc1 tumor xenografts were anesthetized under 2.5% isoflurane and a catheter was fixed in the tail vein before being secured on the PET-MR bed. An activity of ~250 µCi (9.3 MBq; 0.5 to 0.8 nmol) of [^68Ga]AJ201 was administered intravenously and whole-body PET dynamic scans were performed. Dynamic PET scans were initiated one min before radiotracer injection and acquired at varying intervals to capture early and late-phase kinetics: every 30 s from -1 to 5 min, every min from 5 to 15 min, every 3 min from 15 to 30 min, every 5 min from 30 to 60 min, and every 10 min from 60 to 90 min. The acquired PET data were reconstructed and corrected for radioactive decay and dead time using ParaVision 360 V2 by Bruker. The percentage of injected dose per cc (%ID/cc) values were obtained by drawing ROI on the tumor, muscle, heart, liver and kidney using PMOD software, and image fusion and visualization were also performed using PMOD software.

[2] = PET tumor uptake (SUV) of [68Ga]AJ201; format: in vivo; settings: total radioactivity
[3] = tested on: Panc1 cells; assay: In vitro binding assay with Ga-68 radiotracer; format: cell-based, human
Procedure: (§1) In vitro binding assays were performed to determine the binding of [^68Ga]AJ201 and [^68Ga]AJ210 to Jurkat and PDAC cell lines. Approximately 1 μCi of radiotracer was incubated with cells in 100 μL culture media for 60 min at 4 °C. After incubation, cells were washed three times with ice cold PBS and counted on an automated gamma counter (1282 Compugamma CS, Pharmacia/LKBNuclear, Inc., Gaithersburg, MD). […] For kinetic study, 8×10^6 Panc1 cells/vial were incubated with approximately 8 μCi/vial of [^68Ga]AJ201 in culture media in triplicates at 37 °C and 4 °C in separate tubes. 1×10^6 cells were aliquoted at predetermined timepoints (5, 15, 30, 60 min). Excess radioactivity was removed by washing three times with PBS. Activity in cell pellets were measured on an automated gamma counter.

[4] = tested on: CFPAC cells; assay: In vitro binding assay with Ga-68 radiotracer; format: cell-based, human; settings: 1 µCi, 60 min, 4 °C, mean ± SD (n = 3-4)
Procedure: as §1

[5] = tested on: AsPC1 cells; assay: In vitro binding assay with Ga-68 radiotracer; format: cell-based, human; settings: 1 µCi, 60 min, 4 °C, mean ± SD (n = 3-4)
Procedure: as §1

[6] = tested on: Su8686 cells; assay: In vitro binding assay with Ga-68 radiotracer; format: cell-based, human; settings: 1 µCi, 60 min, 4 °C, mean ± SD (n = 3-4)
Procedure: as §1

[7] = tested on: Hs766T cells; assay: In vitro binding assay with Ga-68 radiotracer; format: cell-based, human; settings: 1 µCi, 60 min, 4 °C, mean ± SD (n = 3-4)
Procedure: as §1

[8] = tested on: Panc1005 cells; assay: In vitro binding assay with Ga-68 radiotracer; format: cell-based, human; settings: 1 µCi, 60 min, 4 °C, mean ± SD (n = 3-4)
Procedure: as §1

[9] = tested on: Jurkat cells; assay: In vitro binding assay with Ga-68 radiotracer; format: cell-based, human; settings: Jurkat (negative control cells); 1 µCi, 60 min, 4 °C; mean ± SD (n = 3-4)
Procedure: as §1

[10] = tested on: BxPC3 cells; assay: In vitro binding assay with Ga-68 radiotracer; format: cell-based, human; settings: 1 µCi, 60 min, 4 °C, mean ± SD (n = 3-4)
Procedure: as §1

[11] = Human radiation dosimetry estimates (MIRDCalc)
Excerpt: Pharmacokinetic data obtained from biodistribution studies of Panc1 tumor-bearing mice were utilized to predict the time-integrated activity coefficients (TIACs, formerly known as residence times) of [^68Ga]AJ201 in humans, as previously described [28]-[30]. These TIAC estimates were then input into MIRDCalc to determine the absorbed dose coefficients for organs from ^68Ga using the ICRP adult female reference phantom (Table S4).

[12] = Ex vivo biodistribution; format: in vivo, mice; settings: mouse, in vivo, total radioactivity, KPC syngeneic tumor, 60 min p.i., mean ± SEM (n = 5)
Procedure: Mice with 100-200 mm^3 tumor volume were used for ex vivo biodistribution studies. For radiotracer pharmacokinetics and dosimetry studies, mice with Panc1 tumor xenograft received ~80 µCi (2.96 MBq) [^68Ga]AJ201 and were sacrificed at pre-determined time points (5, 30, 60, 90 and 120 min). All other mice were injected with ~50 µCi (1.85 MBq; 0.2 to 0.5 nmol) Ga-68 labeled radiotracer and were sacrificed at 60 min. The selected tissues were collected, weighed, counted, and their %ID/g values calculated for biodistribution analysis. For pharmacokinetics and dosimetry studies, selected tissues included blood, muscle, tumor, thymus, heart, lung, liver, pancreas, stomach, small intestine, large intestine, spleen, adrenals, kidney, bladder, femur, brain and tumor xenografts. For other studies, selected tissues were blood, muscle, tumor, heart, lung, liver, pancreas, small intestine, spleen, kidney.

[13] = absorbed dose coefficient, MIRDCalc, ICRP adult female reference phantom
[14] = absorbed dose coefficient, MIRDCalc, ICRP adult female reference phantom, listed as [68Ga]AJ201
[15] = predicted for humans from Panc1 mouse biodistribution

**Q.** What does the source list for `CC(C)C[C@@H]1NC(=O)[C@@H]2CSCCC(=O)N3CN(CN(C3)C(=O)CCSC[C@H](NC(=O)[C@H](CC(=O)O)NC(=O)[C@H](CCCCNC(=N)N)NC(=O)[C@H](C)NC(=O)CNC(=O)CN(C)C(=O)CN(C)C(=O)CN(C)C(=O)[C@H](CCCNC(=N)N)NC(=O)CNC(=O)CCOCCOCCNC(=O)CN3CCN(CC(=O)O)CCN(CC(=O)O)CC3)C(=O)N3C[C@H](O)C[C@H]3C(=O)N[C@@H](CC(C)C)C(=O)N[C@@H](C(C)C)C(=O)N[C@@H](CC(N)=O)C(=O)N3CCC[C@H]3C(=O)N[C@@H](CC(C)C)C(=O)N2)C(=O)CCSC[C@@H](C(N)=O)NC(=O)[C@H](CCCCNC(=N)N)NC(=O)[C@H](Cc2c[nH]c3ccccc23)NC(=O)[C@@H](CC(=O)O)NC(=O)[C@@H]2CCCN2C(=O)[C@H](Cc2c[nH]cn2)NC1=O` [[^68Ga]AJ201, metal not drawn] ({NOTA-PEG2}-GR[Sar][Sar][Sar]GA[hArg]DC[Hyp]LVNPLCLHP[dD]W[hArg]C-NH2; linker 10-17-24 via TATA)?
**A.** Time of peak tumor radioactivity (ROI analysis) [1]: 30 min; SUV [2]: 1.31 ± 0.11 SUV; Time to uptake stabilization in Panc1 cells ([3]; 4 °C, time points 5, 15, 30, 60 min): around 30 min; Time to uptake equilibrium in Panc1 cells ([3]; 37 °C, time points 5, 15, 30, 60 min): ≤ 15 min; Reduction of binding to Panc1 cells by blocking ([3]; in the presence of non-radioactive AJ201 (2 µM), P<0.0001): more than 95%; Cell binding (percent incubated activity) [4]: 1.7 ± 0.3 %IA; Cell binding (percent incubated activity) [5]: 9.9 ± 1.2 %IA; Cell binding (percent incubated activity) [6]: 22.0 ± 1.1 %IA; Cell binding (percent incubated activity) [7]: 7.2 ± 0.6 %IA; Cell binding (percent incubated activity) [8]: 4.7 ± 0.1 %IA; Cell binding (percent incubated activity) [9]: 0.8 ± 0.1 %IA; Cell binding (percent incubated activity) [10]: 5.9 ± 0.2 %IA; Organ dose, Adrenals [11, 13]: 0.06 rem/mCi; Organ dose, Bladder [11, 13]: 0.15 rem/mCi; Organ dose, Brain [11, 13]: 0.003215 rem/mCi; Organ dose, Femur [11, 13]: 0.01421 rem/mCi; Organ dose, Heart [11, 13]: 0.03275 rem/mCi; Organ dose, Kidney [11, 13]: 0.38 rem/mCi; Organ dose, Large Intestine [11, 13]: 0.01839 rem/mCi; Organ dose, Liver [11, 13]: 0.02398 rem/mCi; Organ dose, Lung [11, 13]: 0.04 rem/mCi; Organ dose, Muscle [11, 13]: 0.00962 rem/mCi; Organ dose, Pancreas [11, 13]: 0.02708 rem/mCi; Organ dose, Small intestine [11, 13]: 0.01639 rem/mCi; Organ dose, Spleen [11, 13]: 0.03644 rem/mCi; Organ dose, Stomach with contents [11, 13]: 0.0158 rem/mCi; Organ dose, Thymus [11, 13]: 0.02016 rem/mCi; Organ dose, Adrenals [11, 14]: 0.06253 rem/mCi; Organ dose, Bladder [11, 14]: 0.1513 rem/mCi; Organ dose, Kidney [11, 14]: 0.3885 rem/mCi; Organ dose, Lung [11, 14]: 0.04292 rem/mCi; Estimated effective dose equivalent ([11]; at 13 mCi dose, human estimate): less than 5 rem; Dose that can be safely administered for PET imaging ([11]; human estimate): 13 mCi; Residence time (TIAC), Adrenals [11, 15]: 0.0002761 h; Residence time (TIAC), Bladder [11, 15]: 0.006394 h; Residence time (TIAC), Blood [11, 15]: 0.05152 h; Residence time (TIAC), Brain [11, 15]: 0.0008446 h; Residence time (TIAC), Femur [11, 15]: 0.005607 h; Residence time (TIAC), Heart [11, 15]: 0.001764 h; Residence time (TIAC), Kidney [11, 15]: 0.08395 h; Residence time (TIAC), Large Intestine [11, 15]: 0.001341 h; Residence time (TIAC), Liver [11, 15]: 0.01723 h; Residence time (TIAC), Lung [11, 15]: 0.01099 h; Residence time (TIAC), Muscle [11, 15]: 0.07064 h; Residence time (TIAC), Pancreas [11, 15]: 0.0006321 h; Residence time (TIAC), Small intestine [11, 15]: 0.003647 h; Residence time (TIAC), Spleen [11, 15]: 0.002451 h; Residence time (TIAC), Stomach with contents [11, 15]: 0.0004823 h; Residence time (TIAC), Thymus [11, 15]: 0.0002384 h; tissue uptake at 1 h ([12]; 50 uCi, read-out: Bladder uptake): 74.9 ± 15.3 %ID/g; tissue uptake at 1 h ([12]; 50 uCi, read-out: Femur uptake): 0.71 ± 0.22 %ID/g; tissue uptake at 1 h ([12]; 50 uCi, read-out: Heart uptake): 0.3 ± 0.06 %ID/g; tissue uptake at 1 h ([12]; 50 uCi, read-out: Kidney uptake): 50.3 ± 9.75 %ID/g; tissue uptake at 1 h ([12]; 50 uCi, read-out: Liver uptake): 2.46 ± 0.77 %ID/g; tissue uptake at 1 h ([12]; 50 uCi, read-out: Lung uptake): 0.78 ± 0.13 %ID/g; tissue uptake at 1 h ([12]; 50 uCi, read-out: Muscle uptake): 0.28 ± 0.08 %ID/g; tissue uptake at 1 h ([12]; 50 uCi, read-out: Pancreas uptake): 0.22 ± 0.04 %ID/g; tissue uptake at 1 h ([12]; 50 uCi, read-out: Small intestine uptake): 0.62 ± 0.25 %ID/g; tissue uptake at 1 h ([12]; 50 uCi, read-out: Stomach uptake): 0.95 ± 0.26 %ID/g; tissue uptake at 1 h ([12]; 50 uCi, read-out: Tumor uptake): 1.51 ± 0.28 %ID/g; tissue to tissue ratio at 1 h ([12]; 50 uCi, read-out: Tumor/Muscle ratio): 6 ± 0.77; tissue to tissue ratio at 1 h ([12]; 50 uCi, read-out: Tumor/Pancreas ratio): 6.67 ± 2.18; tissue to tissue ratio at 1 h ([12]; 50 uCi, read-out: Tumor/blood ratio): 2.17 ± 0.46; tissue uptake at 1 h ([12]; read-out: Blood uptake): 0.75 ± 0.15 %ID/g; tissue uptake at 1 h ([12]; read-out: Large Intestine uptake): 0.61 ± 0.28 %ID/g; tissue uptake at 1 h ([12]; read-out: Spleen uptake): 0.71 ± 0.3 %ID/g
